Assay results taken from PubChem BioAssay (NCI).
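Dose response: 5 concentrations. Exposure: 48 h. Format: 96-well plates. Endpoint: linear interpolation; highest concentration if not reached. At the GI50, growth is halved. TGI denotes the concentration required for complete inhibition of growth.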

Key:
Test in all cases: growth of human tumour cells (NCI), 48 h
UACC-62 melanoma = test system: UACC-62 melanoma
BT-549 breast = test system: BT-549 breast
KM12 colon = test system: KM12 colon
M14 melanoma = test system: M14 melanoma
SF-268 CNS = test system: SF-268 CNS
NCI-H226 lung = test system: NCI-H226 lung
U251 CNS = test system: U251 CNS
SW-620 colon = test system: SW-620 colon
UACC-257 melanoma = test system: UACC-257 melanoma
HCC-2998 colon = test system: HCC-2998 colon
SNB-19 CNS = test system: SNB-19 CNS
HOP-92 NSCLC = test system: HOP-92 NSCLC
SNB-75 CNS = test system: SNB-75 CNS
TK-10 renal = test system: TK-10 renal
A549 NSCLC = test system: A549 NSCLC
SK-MEL-2 melanoma = test system: SK-MEL-2 melanoma
SN12C renal = test system: SN12C renal
CCRF-CEM leukemia = test system: CCRF-CEM leukemia
HCT-116 colon = test system: HCT-116 colon
EKVX NSCLC = test system: EKVX NSCLC
SK-OV-3 ovarian = test system: SK-OV-3 ovarian
SF-539 CNS = test system: SF-539 CNS
A498 renal = test system: A498 renal
HT29 colon = test system: HT29 colon
NCI/ADR-RES ovarian = test system: NCI/ADR-RES ovarian
SF-295 CNS = test system: SF-295 CNS
HOP-62 NSCLC = test system: HOP-62 NSCLC
MCF7 breast = test system: MCF7 breast
HL-60(TB) leukemia = test system: HL-60(TB) leukemia

With `Cc1cccc(/C=C/C(=O)Nc2ncc(Cc3cccc(C)c3)s2)c1` the GI50 (UACC-62 melanoma) was 144 nM, the TGI (UACC-62 melanoma) was > 100000 nM and the GI50 (BT-549 breast) was 1290 nM. The TGI (BT-549 breast) was > 100000 nM, the GI50 (KM12 colon) was 339 nM and the TGI (KM12 colon) was > 75000 nM. The GI50 (M14 melanoma) was 568 nM, the TGI (M14 melanoma) was 1890 nM and the GI50 (SF-268 CNS) was 2540 nM. For the same molecule, the TGI (SF-268 CNS) was > 100000 nM, the GI50 (NCI-H226 lung) was 1280 nM and the TGI (NCI-H226 lung) was > 100000 nM. For the same molecule, the GI50 (U251 CNS) was 1110 nM, the TGI (U251 CNS) was > 100000 nM and the GI50 (SW-620 colon) was 1130 nM. The TGI (SW-620 colon) was > 100000 nM, the GI50 (UACC-257 melanoma) was 1590 nM and the TGI (UACC-257 melanoma) was > 100000 nM. For the same molecule, the GI50 (HCC-2998 colon) was 1680 nM, the TGI (HCC-2998 colon) was > 100000 nM and the GI50 (SNB-19 CNS) was 1400 nM. The TGI (SNB-19 CNS) was > 100000 nM, the GI50 (HOP-92 NSCLC) was 1250 nM and the TGI (HOP-92 NSCLC) was > 100000 nM. For the same molecule, the GI50 (SNB-75 CNS) was 903 nM, the TGI (SNB-75 CNS) was > 20500 nM and the GI50 (TK-10 renal) was > 25600 nM. The TGI (TK-10 renal) was > 100000 nM, the GI50 (A549 NSCLC) was 1020 nM and the TGI (A549 NSCLC) was > 100000 nM. The GI50 (SK-MEL-2 melanoma) was 627 nM, the TGI (SK-MEL-2 melanoma) was 4750 nM and the GI50 (SN12C renal) was 1680 nM. The TGI (SN12C renal) was > 100000 nM, the GI50 (CCRF-CEM leukemia) was 884 nM and the TGI (CCRF-CEM leukemia) was > 100000 nM. The GI50 (HCT-116 colon) was 1100 nM, the TGI (HCT-116 colon) was > 100000 nM and the GI50 (EKVX NSCLC) was 1220 nM. For the same molecule, the TGI (EKVX NSCLC) was > 100000 nM, the GI50 (SK-OV-3 ovarian) was 1670 nM and the TGI (SK-OV-3 ovarian) was > 100000 nM. The GI50 (SF-539 CNS) was 863 nM, the TGI (SF-539 CNS) was > 32500 nM and the GI50 (A498 renal) was > 27700 nM. For the same molecule, the TGI (A498 renal) was > 100000 nM, the GI50 (HT29 colon) was 739 nM and the TGI (HT29 colon) was 2580 nM. The GI50 (NCI/ADR-RES ovarian) was 869 nM, the TGI (NCI/ADR-RES ovarian) was > 100000 nM and the GI50 (SF-295 CNS) was 329 nM. For the same molecule, the TGI (SF-295 CNS) was 2460 nM, the GI50 (HOP-62 NSCLC) was 633 nM and the TGI (HOP-62 NSCLC) was > 100000 nM. For the same molecule, the GI50 (MCF7 breast) was 820 nM, the TGI (MCF7 breast) was > 100000 nM and the GI50 (HL-60(TB) leukemia) was 579 nM. The TGI (HL-60(TB) leukemia) was 1970 nM.
